Laboratory results: PubChem BioAssay (NCI)
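Here, GI50 denotes the concentration required for 50% inhibition of growth. The concentration for full growth arrest is given as TGI.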

What was measured:
Assay in all cases: growth of human tumour cells (NCI), 384-well format
NCI/ADR-RES ovarian = test system: NCI/ADR-RES ovarian
U251 glioblastoma = test system: U251 glioblastoma
MALME-3M melanoma = test system: MALME-3M melanoma
SK-MEL-2 melanoma = test system: SK-MEL-2 melanoma
COLO 205 colon = test system: COLO 205 colon
OVCAR-8 ovarian = test system: OVCAR-8 ovarian
786-0 renal = test system: 786-0 renal
A498 renal = test system: A498 renal
KM12 colon = test system: KM12 colon
ACHN renal = test system: ACHN renal
SK-OV-3 ovarian = test system: SK-OV-3 ovarian
SF-539 CNS = test system: SF-539 CNS
SF-268 CNS = test system: SF-268 CNS
K-562 leukemia = test system: K-562 leukemia
SNB-19 CNS = test system: SNB-19 CNS
SW-620 colon = test system: SW-620 colon
EKVX NSCLC = test system: EKVX NSCLC
HCT-15 colon = test system: HCT-15 colon
OVCAR-3 ovarian = test system: OVCAR-3 ovarian
OVCAR-4 ovarian = test system: OVCAR-4 ovarian
PC-3 prostate = test system: PC-3 prostate
SF-295 CNS = test system: SF-295 CNS
M14 melanoma = test system: M14 melanoma
HCT-116 colon = test system: HCT-116 colon
SN12C renal = test system: SN12C renal
NCI-H460 NSCLC = test system: NCI-H460 NSCLC
HOP-92 NSCLC = test system: HOP-92 NSCLC
HL-60(TB) leukemia = test system: HL-60(TB) leukemia
NCI-H322M lung = test system: NCI-H322M lung
TK-10 renal = test system: TK-10 renal
RXF 393 renal = test system: RXF 393 renal
SNB-75 CNS = test system: SNB-75 CNS
MDA-MB-468 breast = test system: MDA-MB-468 breast
HT29 colon = test system: HT29 colon
SK-MEL-28 melanoma = test system: SK-MEL-28 melanoma
NCI-H522 lung = test system: NCI-H522 lung
UACC-62 melanoma = test system: UACC-62 melanoma
IGROV1 ovarian = test system: IGROV1 ovarian
LOX IMVI melanoma = test system: LOX IMVI melanoma
NCI-H226 lung = test system: NCI-H226 lung
RPMI-8226 leukemia = test system: RPMI-8226 leukemia
HS 578T breast = test system: HS 578T breast
HOP-62 NSCLC = test system: HOP-62 NSCLC
HCC-2998 colon = test system: HCC-2998 colon
CAKI-1 renal = test system: CAKI-1 renal
DU-145 prostate = test system: DU-145 prostate
MDA-MB-435 melanoma = test system: MDA-MB-435 melanoma
MOLT-4 leukemia = test system: MOLT-4 leukemia
MCF7 breast = test system: MCF7 breast
CCRF-CEM leukemia = test system: CCRF-CEM leukemia
UACC-257 melanoma = test system: UACC-257 melanoma
A549 NSCLC = test system: A549 NSCLC
NCI-H23 lung = test system: NCI-H23 lung
BT-549 breast = test system: BT-549 breast
SK-MEL-5 melanoma = test system: SK-MEL-5 melanoma

`N#Cc1ccc(OC(=O)Nc2cc(Cl)cc(Cl)c2)cc1` gave a GI50 (NCI/ADR-RES ovarian) of 3.79 µM, a TGI (NCI/ADR-RES ovarian) of 9.65 µM and a GI50 (U251 glioblastoma) of 3.43 µM. For the same compound, the TGI (U251 glioblastoma) was 7.96 µM, the GI50 (MALME-3M melanoma) was 5.9 µM and the TGI (MALME-3M melanoma) was 16.4 µM. For the same compound, the GI50 (SK-MEL-2 melanoma) was 2.84 µM, the TGI (SK-MEL-2 melanoma) was 5.82 µM and the GI50 (COLO 205 colon) was 6.65 µM. For the same compound, the TGI (COLO 205 colon) was 23.9 µM, the GI50 (OVCAR-8 ovarian) was 4.1 µM and the TGI (OVCAR-8 ovarian) was 12.6 µM. It also gave a GI50 ([…]-0 renal) of 7.03 µM, a TGI (786-0 renal) of 20.1 µM and a GI50 (A498 renal) of 3.47 µM. For the same compound, the TGI (A498 renal) was 9.21 µM, the GI50 (KM12 colon) was 3.74 µM and the TGI (KM12 colon) was 11 µM. The GI50 (ACHN renal) was 3.51 µM, the TGI (ACHN renal) was 10 µM and the GI50 (SK-OV-3 ovarian) was 6 µM. The TGI (SK-OV-3 ovarian) was 19.9 µM, the GI50 (SF-539 CNS) was 4.28 µM and the TGI (SF-539 CNS) was 13.4 µM. For the same compound, the GI50 (SF-268 CNS) was 5.61 µM, the TGI (SF-268 CNS) was 21.6 µM and the GI50 (K-562 leukemia) was 7.71 µM. The TGI (K-562 leukemia) was 93.1 µM, the GI50 (SNB-19 CNS) was 4.74 µM and the TGI (SNB-19 CNS) was 19.1 µM. For the same compound, the GI50 (SW-620 colon) was 4.54 µM, the TGI (SW-620 colon) was 14.6 µM and the GI50 (EKVX NSCLC) was 3.92 µM. The TGI (EKVX NSCLC) was 12.6 µM, the GI50 (HCT-15 colon) was 4.14 µM and the TGI (HCT-15 colon) was 12.1 µM. The GI50 (OVCAR-3 ovarian) was 2.44 µM, the TGI (OVCAR-3 ovarian) was 5.16 µM and the GI50 (OVCAR-4 ovarian) was 8.27 µM. The TGI (OVCAR-4 ovarian) was 62.2 µM, the GI50 (PC-3 prostate) was 3.27 µM and the TGI (PC-3 prostate) was 7.27 µM. The GI50 (SF-295 CNS) was 3.07 µM, the TGI (SF-295 CNS) was 8.78 µM and the GI50 (M14 melanoma) was 5.38 µM. The TGI (M14 melanoma) was 15 µM, the GI50 (HCT-116 colon) was 3.12 µM and the TGI (HCT-116 colon) was 7.62 µM. It also gave a GI50 (SN12C renal) of 4 µM, a TGI (SN12C renal) of 13.2 µM and a GI50 (NCI-H460 NSCLC) of 2.84 µM. For the same compound, the TGI (NCI-H460 NSCLC) was 6.62 µM, the GI50 (HOP-92 NSCLC) was 3.23 µM and the TGI (HOP-92 NSCLC) was 7.12 µM. It also gave a GI50 (HL-60(TB) leukemia) of 1.77 µM, a TGI (HL-60(TB) leukemia) of 3.16 µM and a GI50 (NCI-H322M lung) of 11.6 µM. It also gave a TGI (NCI-H322M lung) of 29.4 µM, a GI50 (TK-10 renal) of 4.01 µM and a TGI (TK-10 renal) of 13.1 µM. The GI50 (RXF 393 renal) was 6.26 µM, the TGI (RXF 393 renal) was 17.7 µM and the GI50 (SNB-75 CNS) was 3.32 µM. For the same compound, the TGI (SNB-75 CNS) was 9.94 µM, the GI50 (MDA-MB-468 breast) was 9.04 µM and the TGI (MDA-MB-468 breast) was 20.9 µM. The GI50 (HT29 colon) was 4.43 µM, the TGI (HT29 colon) was 17.3 µM and the GI50 (SK-MEL-28 melanoma) was 13.1 µM. It also gave a TGI (SK-MEL-28 melanoma) of 30.6 µM, a GI50 (NCI-H522 lung) of 3.23 µM and a TGI (NCI-H522 lung) of 7.63 µM. The GI50 (UACC-62 melanoma) was 7.22 µM, the TGI (UACC-62 melanoma) was 19.3 µM and the GI50 (IGROV1 ovarian) was 4.43 µM. It also gave a TGI (IGROV1 ovarian) of 15.3 µM, a GI50 (LOX IMVI melanoma) of 3.81 µM and a TGI (LOX IMVI melanoma) of 12.7 µM. For the same compound, the GI50 (NCI-H226 lung) was 3.27 µM, the TGI (NCI-H226 lung) was 8.97 µM and the GI50 (RPMI-8226 leukemia) was 2.04 µM. It also gave a TGI (RPMI-8226 leukemia) of 3.48 µM, a GI50 (HS 578T breast) of 7.57 µM and a TGI (HS 578T breast) of 20.5 µM. The GI50 (HOP-62 NSCLC) was 3.03 µM, the TGI (HOP-62 NSCLC) was 6.05 µM and the GI50 (HCC-2998 colon) was 13.2 µM. It also gave a TGI (HCC-2998 colon) of 30.8 µM, a GI50 (CAKI-1 renal) of 3.69 µM and a TGI (CAKI-1 renal) of 10.2 µM. The GI50 (DU-145 prostate) was 4.29 µM, the TGI (DU-145 prostate) was 55.5 µM and the GI50 (MDA-MB-435 melanoma) was 8.94 µM. It also gave a TGI (MDA-MB-435 melanoma) of 23.6 µM, a GI50 (MOLT-4 leukemia) of 2 µM and a TGI (MOLT-4 leukemia) of 3.7 µM. The GI50 (MCF7 breast) was 3.75 µM, the TGI (MCF7 breast) was 16 µM and the GI50 (CCRF-CEM leukemia) was 2.19 µM. The TGI (CCRF-CEM leukemia) was 5.31 µM, the GI50 (UACC-257 melanoma) was 6.12 µM and the TGI (UACC-257 melanoma) was 15.9 µM. It also gave a GI50 (A549 NSCLC) of 3.78 µM, a TGI (A549 NSCLC) of 12.7 µM and a GI50 (NCI-H23 lung) of 2.23 µM. The TGI (NCI-H23 lung) was 4.16 µM, the GI50 (BT-549 breast) was 13.4 µM and the TGI (BT-549 breast) was 30.8 µM. It also gave a GI50 (SK-MEL-5 melanoma) of 4.36 µM and a TGI (SK-MEL-5 melanoma) of 13.2 µM.
